The values that follow come from patent US20220202705A1, “THERMORESPONSIVE HYDROGEL CONTAINING POLYMER MICROPARTICLES FOR NONINVASIVE OCULAR BIOLOGIC DELIVERY” (University of Pittsburgh - Of the Commonwealth System of …, priority 2016, published 2022).

For data set [1] the following is noted: 2 drops per day of 0.2% BT, 1-7% absorption, 0.66 mg brimonidine per mg BT. Here is the method: Theoretical maximum and minimum amounts of BT absorption were also calculated as a basis for comparison for in vitro release from the BTMPs. This range was calculated by assuming a 50 μl drop and 2 drops administered per day at a rate of either 1% (minimum) or 7% (maximum) absorption (Ghate and Edelhauser, 2008). As the in vitro release methods measure base brimonidine and not the tartrate salt, a necessary conversion factor of 0.66 mg brimonidine for every 1 mg BT was incorporated in these calculations (Acheampong et al., 2002).

The conditions of data set [2]: in vivo; cited from earlier work.
Data set [3] relates to New Zealand White rabbits. As to the kind of experiment: Post-mortem T1-weighted MRI 24 h after intravitreal injection of Gd-DOTA in thermoresponsive gel. The class given is in vivo, rabbit. The following applies: in hydrogel. As for the experimental part:
Scans were performed within one hour of sacrifice. Soluble Gd-DOTA without MP encapsulation was largely cleared from the injection site at 24 h, with only 56% and 59% signal intensity (relative to nearby muscle tissue) in the vitreous and anterior chamber, respectively. […] The spatiotemporal distribution of Gd-DOTA into the rest of the eye will also provide valuable data for future controlled release formulations of other ocular therapeutics, such as those targeting the posterior segment of the eye.

A short description of data set [4]: Loading and release of other drugs from microparticles embedded in the gel. The format is physicochemical. An excerpt:
The loading and release of other drugs (moxiflxacin and vancomycin) with the microparticles embedded within the gel has also been confirmed.

Data set [5] can be described thus: In vitro NGF release from PLGA microspheres. The format is physicochemical. As to conditions: FIG. 15. As for the experimental part:
1. Prepare aqueous solution of NGF in DI water at 100 ug/ml concentration
2. Add 200 ul of this NGF solution to 4 ml dichloromethane/PLGA solution (using 200 mg of desired PLGA—for microspheres in FIG. 1 this was acid terminated 50:50 lactic:glycolic MW=7-17,000 Da viscosity=0.16-0.24 dl/g)
3. Sonicate for 10 s at 25% amplitude
4. Immediately add to 60 ml of 2% PVA solution and homogenize at 2300 rpm for 1 min
5. Add to 80 ml of 1% PVA solution and stir at 600 rpm for 3 h
6. Wash 4 times (each wash: centrifuge 5-10 min at 1000 rpm, decant, resuspend in DI water)
7. Freeze under liquid N2 and place on lyophilizer until all water is gone
1. Add microspheres (10 mg microspheres/100 ul gel) just prior to use and gently mix to suspend homogeneously.

Turning to `Brc1c(NC2=NCCN2)ccc2nccnc12` [Brimonidine, brimonidine], the “therapeutic levels (theoretical brimonidine absorbed)” value in data set [1] was in the range of 0.53 to 3.7 µg/day.

Consider `O=C([O-])CN(CCN(CC(=O)[O-])CC(=O)O)CCN(CC(=O)[O-])CC(=O)O.[Gd+3]` [Gd-DTPA], for which the ocular half-life in data set [2] is on record as 28.08 min.

In the case of `O=C([O-])CN1CCN(CC(=O)[O-])CCN(CC(=O)O)CCN(CC(=O)[O-])CC1.[Gd+3]` [Soluble Gd-DOTA, gadolinium-tetraazocyclododecanetetraacetic acid], in data set [3], the “signal intensity relative to muscle, anterior chamber” value is 59% and the “signal intensity relative to muscle, vitreous” value stood at 56%.

Turning to `CN[C@H](CC(C)C)C(=O)N[C@H]1C(=O)N[C@@H](CC(N)=O)C(=O)N[C@H]2C(=O)N[C@H]3C(=O)N[C@H](C(=O)N[C@H](C(=O)O)c4cc(O)cc(O)c4-c4cc3ccc4O)[C@H](O)c3ccc(c(Cl)c3)Oc3cc2cc(c3O[C@@H]2O[C@H](CO)[C@@H](O)[C@H](O)[C@H]2O[C@H]2C[C@](C)(N)[C@H](O)[C@H](C)O2)Oc2ccc(cc2Cl)[C@H]1O` [vancomycin], in data set [4], the “loading and release with microparticles embedded within the gel” value is listed as “confirmed”.

Regarding Brimonidine tartrate [BT], the ocular half-life in data set [2] is 28.2 min.

As to “NGF: nerve growth factor, released from NGF-loaded PLGA microspheres”, the “duration of NGF release” value in data set [5] is recorded as “approximately one week”.
